Experimental data taken from patent US12384825B2, “Monomeric peptide multi-agonist targeting the GLP1 receptor and NPY receptors” (Syracuse University, priority 2019, dated 2025).
Entries after “also recorded” stand apart in the source; their conditions may differ. Where no end group is shown, it is not given here. [ ]: non-standard residue; d: D form. Lys(N3) = [N-]=[N+]=NCCCC[C@H](N)C(=O)O

Assays:
[1] = target: T1, human NPY2-R (Homo sapiens, UniProt P49146); assay: FRET assay at Y2-R, mitigation of adenosine stimulated cAMP at the A2b receptor (EPAC2/H188, HEK293); format: cell-based
T1 construct: host or cells: HEK293 (H188 FRET reporter)
T1 sequence (P49146 1-381): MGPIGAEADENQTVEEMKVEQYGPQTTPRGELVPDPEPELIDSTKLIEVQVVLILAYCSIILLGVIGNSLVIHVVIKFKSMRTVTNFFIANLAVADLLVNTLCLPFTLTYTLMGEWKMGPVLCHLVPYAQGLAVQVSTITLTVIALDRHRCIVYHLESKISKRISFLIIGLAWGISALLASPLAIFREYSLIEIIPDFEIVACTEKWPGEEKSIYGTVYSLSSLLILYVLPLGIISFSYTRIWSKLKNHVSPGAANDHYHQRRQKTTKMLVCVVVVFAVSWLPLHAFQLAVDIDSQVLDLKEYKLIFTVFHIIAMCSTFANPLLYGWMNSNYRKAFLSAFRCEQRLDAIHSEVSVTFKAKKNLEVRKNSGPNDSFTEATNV

[2] = tested on: human islets; assay: Insulin release in human islets; format: cell-based
[3] = Intraperitoneal glucose tolerance testing after 5-d treatment in rats; format: in vivo, rat; settings: 10 nmol/kg, pre-diabetic (DIO) rats
Procedure: DIO Sprague Dawley rats (803.0±102.7 g n=7) were administered a pre-treatment IPGTT with a vehicle injection. Animals were grouped based on body weight, Lee Index (a measure of adiposity; lee index=weight1/3/nasoanal length), and baseline IPGTT blood glucose excursion. […] On treatment day 5, a repeat IPGTT was performed with the assigned treatment. All weights noted are mean±Std. Dev. Metabolic testing. Intraperitoneal glucose tolerance testing (IPGTT) was performed following a 6-h fast such that the glucose bolus occurred at the start of the dark cycle; all animal handling is performed under red light. […] A second baseline sample was obtained 30 minutes later, immediately prior to the dextrose bolus (1.5 g/kg dextrose, 20% solution). Additional blood glucose measurements were taken 7, 15, 30, 45, 60, and 120 minutes post-bolus. All blood glucose measurements were made via handheld glucometers (One Touch Ultra) in duplicate; if the variation between the two measures was >5%, a third measurement was taken.

[4] = IPGTT in shrews; format: in vivo, shrew
[5] = 5-day treatment in diet-induced obese (DIO) rats; format: in vivo, rat; settings: diet-induced obese Sprague-Dawley rats, 10 nmol/kg once daily, 5 d
Excerpt: Diet Induced Obese (DIO) rats. To generate DIO rats, young (4-wk of age) lean male Sprague Dawley rats (Charles River Laboratories, Inc. Wilmington, MA; strain code 001) were placed on a high fat diet (HFD; D12492, 60% kcal from fat, Research Diets, New Brunswick, NJ) for 4-5 months prior to the start of the experiments to attain >20% of body fat. During this time, animals had ad libitum access to food and water.
5-day Treatment in DIO rats. DIO Sprague Dawley rats (2 cohorts; 826.1 g n=9, and 642.3 g n=5) were individually housed and the animal room was maintained on a 12-h light/12-hour dark cycle. During the 5-day baseline phase, animals were administered vehicle (0.9% sterile saline solution, injectable) injections just prior to the start of the dark cycle. At the end of the baseline phase, animals were grouped based on body weight, average daily body weight gain, and food intake. […] Throughout the experiment, body weight and food intake (via hopper weighs) were assessed daily just prior to the start of the dark cycle. Fasting blood glucose was tested prior to the baseline phase and at the end of the treatment phase via handheld glucometer (One Tough Ultra).

[6] = Dose escalation study, food intake in rats; format: in vivo, rat
Procedure: Dose Escalation Study. Lean Sprague Dawley rats (350 g) were individually housed in cages capable of recording food intake (Accuscan Diet cages). The animal room was maintained on a 12-h light/12-hour dark cycle. The study design consisted of sequential rounds of a 2-day baseline phase, a 2-day treatment phase, and a 2-day washout phase. Body weight was assessed daily just prior to the start of the dark cycle, food and kaolin intake were available ad libitum and consumption was continuously recorded. Treatment doses were administered just prior to the start of the dark cycle via subcutaneous injection.

[7] = target: human GLP-1R (Homo sapiens, UniProt P43220); assay: FRET reporter assay tracking cAMP stimulation at the GLP-1R (EPAC2/H188 sensor, HEK293 cells); format: cell-based; settings: FIG. 7
Chain of human GLP-1R (P43220 24-463): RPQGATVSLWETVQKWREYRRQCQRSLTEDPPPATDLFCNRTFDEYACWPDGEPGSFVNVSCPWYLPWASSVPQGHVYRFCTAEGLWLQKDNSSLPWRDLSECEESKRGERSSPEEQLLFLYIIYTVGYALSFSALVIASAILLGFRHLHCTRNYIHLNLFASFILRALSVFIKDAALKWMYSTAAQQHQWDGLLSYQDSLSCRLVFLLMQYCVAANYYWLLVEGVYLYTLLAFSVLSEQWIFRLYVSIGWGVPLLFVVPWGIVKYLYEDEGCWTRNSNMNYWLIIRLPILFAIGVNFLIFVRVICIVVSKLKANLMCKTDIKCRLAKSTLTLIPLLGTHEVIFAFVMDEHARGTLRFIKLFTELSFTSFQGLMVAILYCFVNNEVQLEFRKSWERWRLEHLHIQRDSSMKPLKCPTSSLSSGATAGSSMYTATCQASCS

[8] = tested on: rat islets; assay: Insulin secretion rate in rat islet cell perifusion, exposure and washout; format: cell-based
[9] = tested on: rat pancreatic islets; assay: Static glucose stimulated insulin secretion (GSIS) in rat islets; format: cell-based; settings: 10 mM glucose, 50 nM peptides
[10] = tested on: perifused isolated rat islets; assay: Cytokine-induced damage of perifused isolated rat islets (OCR, membrane permeability); format: cell-based; settings: cytokines IFN-γ, TNF-α, IL-1β
[11] = target: T2, human NPY1-R (Homo sapiens, UniProt P25929); assay: FRET assay at Y1-R, mitigation of adenosine stimulated cAMP at the A2b receptor (EPAC2/H188, HEK293); format: cell-based; settings: cells expressing Y1-R, partial antagonist
T2 construct: host or cells: HEK293 (H188 FRET reporter)
T2 sequence (P25929 1-384): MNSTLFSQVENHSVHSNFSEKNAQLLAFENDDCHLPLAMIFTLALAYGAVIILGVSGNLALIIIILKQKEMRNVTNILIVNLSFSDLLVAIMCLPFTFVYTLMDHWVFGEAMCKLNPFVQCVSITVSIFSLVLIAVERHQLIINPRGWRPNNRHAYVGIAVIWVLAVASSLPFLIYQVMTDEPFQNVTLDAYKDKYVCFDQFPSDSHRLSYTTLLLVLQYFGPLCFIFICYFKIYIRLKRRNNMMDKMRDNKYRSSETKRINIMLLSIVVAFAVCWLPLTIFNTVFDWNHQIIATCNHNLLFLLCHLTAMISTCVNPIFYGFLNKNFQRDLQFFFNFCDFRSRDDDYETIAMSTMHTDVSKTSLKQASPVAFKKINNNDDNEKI

Row | signalling via the Y2-R, cAMP production ([1]; FIG. 7) | signalling via the GLP-1R, cAMP production [7] | block of GEP44 agonism by antagonist at Y2-R ([1]; FRET, cells expressing Y2-R, potent antagonist) | block of GEP44 agonism by antagonist at Y1-R [11] | Compound | insulin release in human islets [2] | blood glucose during intraperitoneal glucose tolerance testing, GEP44 vs Ex4 [3] | glucoregulation (IPGTT) [4] | body weight [5] | fasting blood glucose [5] | food intake [5] | 2-d avg. FI ([6]; 10 nmol/kg/d, rats) | reduction in food intake over 2 days ([6]; 20 nmol/kg daily, lean Sprague-Dawley rats) | 2-d avg. FI ([6]; 30 nmol/kg/d, rats) | reductions in FI ([6]; preliminary dose escalation studies, dose not stated) | food intake (in words) ([6]; rats, dose escalation, 2-d on each dose) | insulin secretion rate (ISR) ([8]; acute exposure) | persistence of the effect on insulin secretion after washout ([8]; exposure and washout) | glucose stimulated insulin secretion (GSIS), as ISR [9] | fall in cytokine-induced OCR [10]
1 | stimulate cAMP production | stimulate cAMP production | – | – | H[dS]QGTFTSDLS[Lys(N3)]YLEEEAVREFIAWLKNGGPSRHYLNLVTRQRY-NH2 [GEP44] | capable of stimulating insulin release | stronger reductions in blood glucose | confirmed glucoregulation | sustained weight loss | reduced fasting blood glucose; also recorded: significant reduction in fasting blood glucose | reduced food intake | −58% | −81.4% | −84% | > 88% | robust reduction of FI; also recorded: robust reduction of food intake | significantly increased | more sustained vs. Ex-4 | stimulated GSIS; also recorded: significantly increased | slowed the fall in cytokine-induced OCR
2 | – | – | blocked GEP44 agonism | blocked GEP44 agonism | N=C(N)NCCC[C@H](NC(=O)CC1(CC(=O)N2CCN(C3c4ccccc4NC(=O)c4ccccc43)CC2)CCCC1)C(=O)NCCn1c(=O)n(-c2ccccc2)n(-c2ccccc2)c1=O (stereo partly shown) [BIIE0246, reference compound] | – | – | – | – | – | – | – | – | – | – | – | – | – | – | –
